Assay [1] addresses T1, Bone morphogenetic protein 1 (Homo sapiens, UniProt P13497).
T1 sequence (P13497 whole entry): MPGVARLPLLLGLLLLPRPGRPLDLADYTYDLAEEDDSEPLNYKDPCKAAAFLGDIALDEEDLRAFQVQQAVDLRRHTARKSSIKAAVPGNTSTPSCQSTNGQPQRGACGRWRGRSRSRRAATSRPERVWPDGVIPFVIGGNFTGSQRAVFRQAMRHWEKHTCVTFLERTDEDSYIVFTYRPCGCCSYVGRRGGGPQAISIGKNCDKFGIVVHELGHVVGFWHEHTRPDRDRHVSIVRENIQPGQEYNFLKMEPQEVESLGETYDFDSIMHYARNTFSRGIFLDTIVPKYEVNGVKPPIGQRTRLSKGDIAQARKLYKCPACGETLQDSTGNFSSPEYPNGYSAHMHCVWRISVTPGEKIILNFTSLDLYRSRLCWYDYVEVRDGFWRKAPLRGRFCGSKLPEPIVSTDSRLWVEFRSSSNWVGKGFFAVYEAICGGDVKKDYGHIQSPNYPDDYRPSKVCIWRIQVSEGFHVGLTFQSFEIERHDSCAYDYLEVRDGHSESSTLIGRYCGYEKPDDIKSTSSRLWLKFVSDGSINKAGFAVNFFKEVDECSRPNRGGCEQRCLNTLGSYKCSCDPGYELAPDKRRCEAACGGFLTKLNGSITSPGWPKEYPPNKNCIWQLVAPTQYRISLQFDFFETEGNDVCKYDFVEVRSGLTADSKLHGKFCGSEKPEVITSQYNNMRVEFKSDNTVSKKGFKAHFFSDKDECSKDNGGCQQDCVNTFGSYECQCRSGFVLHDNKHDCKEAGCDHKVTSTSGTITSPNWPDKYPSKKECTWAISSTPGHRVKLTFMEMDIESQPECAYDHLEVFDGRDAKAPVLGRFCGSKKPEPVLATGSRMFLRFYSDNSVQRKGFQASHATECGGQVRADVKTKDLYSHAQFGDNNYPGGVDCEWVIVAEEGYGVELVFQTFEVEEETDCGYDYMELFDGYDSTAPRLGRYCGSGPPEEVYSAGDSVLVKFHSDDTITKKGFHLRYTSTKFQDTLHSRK
Put plainly: Inhibition of C-terminal FLAG-6x-His epitope tagged and N-terminal human RAGE signal sequence tagged human BMP1 (23 to 721 amino acids) expressed in CHO-E1A cells pre-incubated for 10 mins before promyostatin peptide substrate addition and measured after 30 mins using 50 nM BMP1 by FRET based assay. Type of assay: cell-based.

In another assay the target is Tolloid-like protein 1 (Homo sapiens, UniProt O43897, I156V/N221S/V284A). Put plainly: Inhibition of recombinant human TLL1 I156V/N221S/V284A mutant expressed in CHOE1A cells pre-incubated for 10 mins before promyostatin peptide substrate addition and measured after 60 mins by FRET based assay. The format is cell-based.
The nature of assay [2]: Reduction in PICP levels in human cardiac fibroblasts incubated for 24 to 48 hrs by ELISA. The format is functional. For orientation: An ELISA detects its analyte on a solid surface through an enzyme-linked reagent.
For assay [3], the target named is T1, Bone morphogenetic protein 1. The experiment in a line: Inhibition of C-terminal FLAG-6x-His epitope tagged and N-terminal human RAGE signal sequence tagged human BMP1 (23 to 721 amino acids) expressed in CHO-E1A cells pre-incubated for 10 mins before promyostatin peptide substrate addition and measured after 60 mins using 0.5 nM BMP1 by FRET based assay. The format is cell-based.

In another assay the target is T2, Tolloid-like protein 2 (Homo sapiens, UniProt Q9Y6L7).
T2 sequence (Q9Y6L7 whole entry): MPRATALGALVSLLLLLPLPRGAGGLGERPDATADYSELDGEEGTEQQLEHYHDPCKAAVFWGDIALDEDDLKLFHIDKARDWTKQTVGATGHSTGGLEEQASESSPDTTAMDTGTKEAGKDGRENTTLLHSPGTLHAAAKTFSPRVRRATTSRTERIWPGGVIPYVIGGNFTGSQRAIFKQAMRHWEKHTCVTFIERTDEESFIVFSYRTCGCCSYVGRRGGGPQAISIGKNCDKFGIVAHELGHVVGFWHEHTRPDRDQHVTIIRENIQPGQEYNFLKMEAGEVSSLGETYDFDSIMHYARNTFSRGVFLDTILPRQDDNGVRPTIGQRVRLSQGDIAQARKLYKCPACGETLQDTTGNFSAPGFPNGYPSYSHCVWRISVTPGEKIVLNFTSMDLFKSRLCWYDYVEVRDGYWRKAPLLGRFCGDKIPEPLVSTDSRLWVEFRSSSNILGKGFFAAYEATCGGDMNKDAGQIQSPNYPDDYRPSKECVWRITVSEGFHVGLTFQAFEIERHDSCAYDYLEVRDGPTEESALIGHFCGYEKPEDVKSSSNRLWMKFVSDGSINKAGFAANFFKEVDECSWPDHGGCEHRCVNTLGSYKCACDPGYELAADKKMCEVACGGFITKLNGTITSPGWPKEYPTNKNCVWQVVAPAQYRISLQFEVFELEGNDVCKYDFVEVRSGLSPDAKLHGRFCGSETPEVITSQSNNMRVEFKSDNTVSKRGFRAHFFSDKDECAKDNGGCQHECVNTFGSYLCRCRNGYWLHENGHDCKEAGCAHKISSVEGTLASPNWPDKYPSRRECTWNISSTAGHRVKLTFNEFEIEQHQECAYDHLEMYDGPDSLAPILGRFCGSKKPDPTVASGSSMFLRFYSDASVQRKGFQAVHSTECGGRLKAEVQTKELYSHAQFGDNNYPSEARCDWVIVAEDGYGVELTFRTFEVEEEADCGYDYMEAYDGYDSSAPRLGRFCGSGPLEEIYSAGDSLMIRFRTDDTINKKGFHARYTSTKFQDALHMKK
Put plainly: Inhibition of C-terminal Avi-6x-His epitope tagged and N-terminal human RAGE signal sequence tagged recombinant human TLL2 (26 to 1015 amino acids) expressed in CHOE1A cells incubated for 60 mins with promyostatin peptide substrate by FRET based assay. Type of assay: cell-based.

Bounds are passed on as bounds.

Chain of Tolloid-like protein 1 (O43897 148-1013 I156V/N221S/V284A limits assumed): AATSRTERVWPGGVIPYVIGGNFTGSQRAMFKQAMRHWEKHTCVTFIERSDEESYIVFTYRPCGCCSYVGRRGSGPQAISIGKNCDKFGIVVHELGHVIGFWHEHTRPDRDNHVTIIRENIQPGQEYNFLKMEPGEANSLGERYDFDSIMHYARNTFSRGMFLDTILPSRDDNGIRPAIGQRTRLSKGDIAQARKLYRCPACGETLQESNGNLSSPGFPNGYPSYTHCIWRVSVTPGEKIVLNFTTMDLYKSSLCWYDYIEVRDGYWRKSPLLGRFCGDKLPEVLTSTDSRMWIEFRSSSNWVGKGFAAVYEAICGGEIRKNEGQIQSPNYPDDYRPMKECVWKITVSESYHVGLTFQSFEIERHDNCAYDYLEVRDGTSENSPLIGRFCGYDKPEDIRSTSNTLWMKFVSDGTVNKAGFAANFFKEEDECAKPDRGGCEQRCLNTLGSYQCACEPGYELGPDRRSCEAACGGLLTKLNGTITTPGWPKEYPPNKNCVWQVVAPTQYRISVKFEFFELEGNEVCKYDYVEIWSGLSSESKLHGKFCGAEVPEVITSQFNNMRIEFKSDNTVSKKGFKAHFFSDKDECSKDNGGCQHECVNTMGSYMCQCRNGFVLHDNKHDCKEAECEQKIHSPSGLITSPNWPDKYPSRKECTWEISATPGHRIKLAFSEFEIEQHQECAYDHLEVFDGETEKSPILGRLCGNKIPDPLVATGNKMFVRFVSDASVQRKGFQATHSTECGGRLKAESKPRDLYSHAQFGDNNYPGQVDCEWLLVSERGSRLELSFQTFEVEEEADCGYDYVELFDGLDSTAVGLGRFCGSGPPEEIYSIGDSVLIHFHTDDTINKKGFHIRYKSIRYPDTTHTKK

As a reminder, the IC50 is the concentration that inhibits the measured activity by half. On to `CCCCC[C@@H](C(=O)NCNC(=O)c1cccc(-c2ccc(C3(C(=O)O)CC3)cc2)n1)[C@@H](CC)N(O)C=O`, for which the IC50 was < 251 nM in assay [1]; < 398 nM on Tolloid-like protein 1; < 20 µM in assay [2]; < 126 nM in assay [3]; < 631 nM at Tolloid-like protein 2.
In the case of `COc1cccc(-c2cccc(C(=O)NCNC(=O)[C@H](CC3CCCC3)CN(O)C=O)c2)c1`, the IC50 in assay [1] was < 251 nM; on Tolloid-like protein 1, < 398 nM; in assay [2] it was < 20 µM; in assay [3], < 126 nM; at Tolloid-like protein 2 it was < 631 nM.
For `CCCCC[C@@H](C(=O)NCNC(=O)c1cccc(-c2ccc(C(=O)O)c(OCC)c2)c1)[C@@H](CC)N(O)C=O` the same measures were < 251 nM, < 398 nM, < 20 µM, < 126 nM and < 631 nM.
For `CCCCC[C@H](CN(O)C=O)C(=O)NCNC(=O)c1cccc(Oc2ccc(OC)nc2)c1` the same measures were < 251 nM, < 398 nM, < 20 µM, < 126 nM and < 631 nM.
For `CCCCC[C@H](CN(O)C=O)C(=O)NCNC(=O)c1cccc(-c2cccc(OC)c2)c1F` the same measures were < 251 nM, < 398 nM, < 20 µM, < 126 nM and < 631 nM.
For `CCCCC[C@H](CN(O)C=O)C(=O)NCNC(=O)c1cccc(-c2cc(OC)ccc2F)c1F`, the IC50 is < 251 nM in assay [1]; < 398 nM at Tolloid-like protein 1; < 20 µM in assay [2]; < 126 nM in assay [3]; < 631 nM at Tolloid-like protein 2.
The like results for `O=CN(O)C[C@@H](CC1CCCC1)C(=O)NCNC(=O)c1cccc(-c2ccc(C(F)(F)F)cc2)c1` were, in that order, < 251 nM, < 398 nM, < 20 µM, < 126 nM and < 631 nM.
`CCCCC[C@@H](C(=O)NCNC(=O)c1cccc(-c2cc(OCC)cc(C(=O)N[C@@H](CC(=O)O)C(=O)O)c2)c1)[C@@H](CC)N(O)C=O`: the half-inhibitory concentration (IC50) in assay [1] is < 251 nM; at Tolloid-like protein 1, < 398 nM; in assay [2], < 20 µM; in assay [3], < 126 nM; at Tolloid-like protein 2, < 631 nM.
The like results for `COc1ccccc1-c1cccc(C(=O)NCNC(=O)[C@H](CC2CCCC2)CN(O)C=O)c1` were, in that order, < 251 nM, < 398 nM, < 20 µM, < 126 nM and < 631 nM.
Turning to `CCCCC[C@@H](C(=O)NCNC(=O)c1cccc(-c2ccc(OC)c(C(=O)O)c2)n1)[C@@H](CC)N(O)C=O`, the IC50 was < 251 nM in assay [1]; < 398 nM on Tolloid-like protein 1; < 20 µM in assay [2]; < 126 nM in assay [3]; < 631 nM at Tolloid-like protein 2.
Turning to `CCCCC[C@@H](C(=O)NCNC(=O)c1cccc(-c2ccc(F)c(C(=O)O)c2)n1)[C@@H](CC)N(O)C=O`, the IC50 in assay [1] was < 251 nM; at Tolloid-like protein 1 it was < 398 nM; in assay [2], < 20 µM; in assay [3], < 126 nM; at Tolloid-like protein 2, < 631 nM.
On to `CCCCC[C@H](CN(O)C=O)C(=O)NCNC(=O)c1cccc(-c2ccnc(OC)n2)c1`, for which the IC50 in assay [1] is < 251 nM; at Tolloid-like protein 1 it was < 398 nM; in assay [2] it was < 20 µM; in assay [3] it was < 126 nM; on Tolloid-like protein 2, < 631 nM.
With `CCCCC[C@H](CN(O)C=O)C(=O)NCNC(=O)c1cccc(-c2cnc(C)o2)c1`, the IC50 in assay [1] was < 251 nM; at Tolloid-like protein 1, < 398 nM; in assay [2], < 20 µM; in assay [3], < 126 nM; at Tolloid-like protein 2, < 631 nM.
Consider `CCCCC[C@H](CN(O)C=O)C(=O)NCNC(=O)c1cccc(-c2cc(OCC)cc(C(=O)O)c2)n1`, for which the IC50 in assay [1] is < 251 nM; on Tolloid-like protein 1 it was < 398 nM; in assay [2], < 20 µM; in assay [3] it was < 126 nM; at Tolloid-like protein 2 it was < 631 nM.
Regarding `CCCCC[C@@H](C(=O)NCNC(=O)c1cccc(-c2ccc(P(=O)(O)O)c(OCC)c2)n1)[C@@H](CC)N(O)C=O`, the IC50 was < 251 nM in assay [1]; < 398 nM on Tolloid-like protein 1; < 20 µM in assay [2]; < 126 nM in assay [3]; < 631 nM on Tolloid-like protein 2.
The like results for `CCCCC[C@H](CN(O)C=O)C(=O)NCNC(=O)c1cccc(-c2nc(C)c(C)o2)c1` were, in that order, < 251 nM, < 398 nM, < 20 µM, < 126 nM and < 631 nM.
The like results for `CCCCC[C@@H](C(=O)NCNC(=O)c1cccc(-c2cccc(C(=O)O)c2C)n1)[C@@H](CC)N(O)C=O` were, in that order, < 251 nM, < 398 nM, < 20 µM, < 126 nM and < 631 nM.
For `CCCCC[C@H](CN(O)C=O)C(=O)NCNC(=O)c1cccc(-c2ccccc2)c1` the same measures were < 251 nM, < 398 nM, < 20 µM, < 126 nM and < 631 nM.
Regarding `CCCCC[C@H](CN(O)C=O)C(=O)NCNC(=O)c1cccc(-n2cc(C)cn2)c1`, the IC50 was < 251 nM in assay [1]; < 398 nM at Tolloid-like protein 1; < 20 µM in assay [2]; < 126 nM in assay [3]; < 631 nM at Tolloid-like protein 2.
The like results for `N#Cc1cccc(-c2cccc(C(=O)NCNC(=O)[C@H](CC3CCCC3)CN(O)C=O)c2)c1` were, in that order, < 251 nM, < 398 nM, < 20 µM, < 126 nM and < 631 nM.
For `CCCCC[C@@H](C(=O)NCNC(=O)c1cccc(-c2cccc(OC)c2F)c1F)[C@@H](CC)N(O)C=O` the same measures were < 251 nM, < 398 nM, < 20 µM, < 126 nM and < 631 nM.
With `O=CN(O)C[C@@H](CCc1ccccc1)C(=O)NCNC(=O)c1cccc(-c2cccc(B(O)O)c2)c1`, the IC50 was < 251 nM in assay [1]; < 398 nM on Tolloid-like protein 1; < 20 µM in assay [2]; < 126 nM in assay [3]; < 631 nM on Tolloid-like protein 2.

Values taken from ChEMBL document CHEMBL4476883, “Hydroxy formamide derivatives and their use” (2017).
